{
  "source": "patent US8304443B2",
  "about": "“Indazole derivatives” (Asahi Kasei Pharma Corporation, priority 2008, dated 2012)",
  "key": {"[1]": {"experiment": "Test example 10: saturation solubility in pure water", "format": "physicochemical", "conditions": "thermodynamic from solid, room temperature, shaken 1 hour", "procedure": "Test compound is prepared to saturation state in pure water. The resulting solution is shaken at room temperature for 1 hour. To a filter tube, the entire solution obtained after the shaking is transferred and is subjected to centrifugal filtration at room temperature. The filtrate is analyzed by HPLC, and by using a calibration curve, saturation solubility of the test compound is obtained from the peak area value.\nStandard solution is prepared by precisely weighing each test compound and fully dissolving it in pure water. Calibration curve is established by having the concentration of the standard solution as a horizontal axis and the HPLC area value at the corresponding concentration as a vertical axis.\n(§1) As a separation column, YMC-Pack C18 (4.6 mm×150 mm, manufactured by YMC) is used. Detection is made at UV-254 nm and the temperature inside the column is 40° C. Condition for elution is as follows; with flow rate of 1 ml/minute, solution A as a solvent=water [comprising 0.1% (v/v) acetic acid] and solution B=acetonitrile are used, and from minute 0 to minute 20, 5 to 98% (v/v) linear gradient of solution B is applied, followed by elution with 98% of solution B until minute 25 and elution with 5% of solution B from minute 25.01 to minute 35."}, "[2]": {"tested_on": "rat under pentobarbital anesthesia", "experiment": "Test example 9: effect on blood pressure and heart rate of a rat under pentobarbital anesthesia", "format": "in vivo", "conditions": "male SD rat, 3 mg/kg intravenous bolus; greatest change of mean blood pressure relative to before administration; mean ± standard deviation", "procedure": "After measuring blood pressure and heart rate of a rat under pentobarbital anesthesia, an effect of intravenous bolus administration of a test compound on blood pressure and heart rate can be determined. To a male SD rat (Japan SLC Inc.), sodium pentobarbital (Tokyo Chemical Industry Co., Ltd.) is intraperitoneally administered for induction of anesthesia (50 mg/kg). As maintenance anesthetics, sodium pentobarbital is subcutaneously administered (25 mg/kg). Left femoral vein is exposed and stripped, and then a polyethylene tube SP10 (connected to a three-way stopcock via ¼ vein needle) which has been filled with physiological saline is inserted and left in the vein.\nLeft medial femoral region is cut to expose and strip the femoral artery, and then a polyethylene tube (SP31, connected to a three-way stopcock via 22 G injection needle by TERUMO Corporation) which has been filled with heparin physiological saline is inserted and connected to a pressure transducer. Blood pressure is measured from the pressure transducer by using a modified pressure amplifier (AP-641 G, Nihon Kohden Corporation). Heart rate is measured by using the Heart rate Counter (AT-601 g, Nihon Kohden Corporation) while having the pulse wave of the blood pressure as a trigger. The blood pressure, mean blood pressure and heart rate are transmitted to the data recorder for recordation. In addition, the mean blood pressure is recorded using a modified pressure amplifier (AP-641 G) according to the equation of {diastolic blood pressure+(systolic blood pressure−diastolic blood pressure)/3}.\nBlood pressure and heart rate measurement is started, and after confirming that each value remains almost constant, the test compound (3 mg/kg) is administered to the left femoral vein for 30 seconds. Specifically, the test compound with 3 mg/mL concentration is bolus administered at the administration dose of 1 mL/kg. Relative value (%) at each time point compared to the mean blood pressure and the heart rate before the administration is obtained for each individual. […]"}, "[3]": {"molecular_target": "T1, human β3 adrenergic receptor (Homo sapiens, UniProt P13945)", "T1 construct": "used as a probe to obtain the full length human β3 gene from a human genomic library (Clonetech); expressed in transfected cells; host or cells: CHO (Chinese hamster ovary) cells, pcDNA3, geneticin-selected", "T1 sequence (P13945 whole entry)": "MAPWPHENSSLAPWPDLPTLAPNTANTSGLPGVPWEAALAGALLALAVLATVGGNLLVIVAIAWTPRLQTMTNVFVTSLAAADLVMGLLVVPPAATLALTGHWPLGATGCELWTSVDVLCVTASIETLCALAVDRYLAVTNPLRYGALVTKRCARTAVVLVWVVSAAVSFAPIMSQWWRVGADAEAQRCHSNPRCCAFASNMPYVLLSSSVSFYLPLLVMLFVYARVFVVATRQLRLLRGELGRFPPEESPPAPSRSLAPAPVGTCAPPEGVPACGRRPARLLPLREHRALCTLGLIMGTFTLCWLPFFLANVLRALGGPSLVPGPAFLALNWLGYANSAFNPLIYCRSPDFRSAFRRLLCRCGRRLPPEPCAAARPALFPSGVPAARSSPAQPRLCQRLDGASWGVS", "experiment": "Test example 1-B: human β3 adrenergic receptor agonist activity (cAMP-Screen, 96-well)", "format": "cell-based", "conditions": "for Emax: 0.5 h, read-out: β3 receptor I.A.; for EC50: Table 4, Test example 1-B, CHO cells with human β3 gene, cAMP", "procedure": "Human β3 adrenergic receptor agonist activity is determined using CHO (Chinese hamster ovary) cells transfected with pcDNA3 (Invitrogen) to which human β3 gene has been inserted. […] This human β3 cDNA fragment is used as a probe to obtain the full length human β3 gene from a human genomic library (Clonetech). The above cells are cultured in a Ham's F-12 medium containing 10% fetal bovine serum and 400 μg/mL geneticin (Invitrogen). After seeding these cells into a 96-well plate (2×10^4 cells/well) and culturing them for about 20 hours, they are allowed to stand in a serum-free Ham's F-12 medium (80 μL) for 15 minutes. The test compound is first dissolved in DMSO, serially diluted with Ham's F-12 comprising 100 mmol/L HEPES and 1 mmol/L isobutylmethylxanthine, and then 20 μL of the solution is added to the cells. After the cells are cultured for 30 minutes, the medium is removed, followed by addition of assay/lysis buffer (0.1 ml) included in cAMP-Screen Kit (manufactured by Applied Biosystems). The cells are incubated for 30 minutes at 37° C. The resulting cell lysate is determined to cAMP quantitation by using cAMP-Screen kit described above."}, "[4]": {"tested_on": "urinary bladder smooth muscle isolated from common marmoset", "experiment": "Test example 7: relaxant activity on urinary bladder smooth muscle isolated from common marmoset", "conditions": "strips contracted by 40 mmol/L KCl, papaverine 10^−4 mol/L relaxation = 100%", "quoted_text": "Specifically, a common marmoset (CLEA Japan, Inc.) is bled to exsanguinated death, and then the urinary bladder is taken out of the marmoset via laparotomy. […] A resting tension of 1 g is applied to the strips, which is then equilibrated for more than 30 minutes. […] The final concentration is 10^−9, 10^−8, 10^−7, 10^−8, 10^−5 and 10^−4 mol/L. Upon the completion of the relaxation response to the test compound at the highest concentration, papaverine with final concentration of 10^−4 mol/L is added and the maximum relaxation response is obtained for each strip. This relaxation response is taken as 100%, and the relaxation ratio (%) is obtained for the test compound at the concentrations of 10^−5 and 10^−4 mol/L."}, "[5]": {"experiment": "Test example 11: solubility test in hydrochloric acid buffer solution having pH 1.2", "format": "physicochemical", "conditions": "37 °C, pH 1.2, simulated gastric fluid, thermodynamic from solid, pH 1.2, 37° C., prepared at 1000 μg/mL", "procedure": "(§2) 500 μg of the test compound is precisely weighed, and then added with hydrochloric acid buffer solution having pH 1.2 until the concentration of 1000 μg/mL is obtained. The […] is shaken at 37° C. for 1 hour. To a filter tube, the entire solution obtained after the shaking is transferred and is subjected to centrifugal filtration at room temperature. The filtrate is analyzed by HPLC, and by using a calibration curve, saturation solubility of the test compound is obtained from the peak area value.\nStandard solution is prepared by precisely weighing 500 μg of the test compound and dissolving it DMSO to obtain the concentration of 1 mg/mL.\nas §1"}, "[6]": {"experiment": "Test example 12: solubility test in physiological saline", "format": "physicochemical", "conditions": "saline or isotonic, thermodynamic from solid, 37° C., prepared at 1000 μg/mL", "procedure": "as §2\nExcept that the hydrochloric acid buffer solution having pH 1.2 is replaced with physiological saline, the test is carried out in the same method as Test example 11 to obtain the solubility of the test compound."}},
  "data": [
    {"compound": "CS(=O)(=O)Nc1cccc([C@@H](O)CNCCOc2ccc3c(C4CCC4)n[nH]c3c2)c1", "note": "[Example 2, (R)—N-(3-(1-Hydroxy-2-(2-(3-cyclobutylindazol-6-yloxy)ethylamino)ethyl)phenyl)methanesulfonamide]", "values": [
      {"measurement": "solubility at 1 h", "setting": "[1]", "result": 53000, "unit": "µg/mL"},
      {"measurement": "increase in MBP (%)", "setting": "[2]", "result": "4.0 ± 2.6", "unit": "%"},
      {"measurement": "Emax", "setting": "[3]", "result": 68, "unit": "%"},
      {"measurement": "EC50", "setting": "[3]", "result": 56, "unit": "nM"},
      {"measurement": "relaxant activity (%) 10^−4 M", "setting": "[4]", "result": 65.6, "unit": "%"},
      {"measurement": "relaxant activity (%) 10^−5 M", "setting": "[4]", "result": 50.8, "unit": "%"},
      {"measurement": "solubility at 1 h", "setting": "[5]", "result": "> 1000", "unit": "µg/mL"},
      {"measurement": "solubility at 1 h", "setting": "[6]", "result": 999, "unit": "µg/mL"}
    ]},
    {"compound": "CS(=O)(=O)Nc1cccc([C@@H](O)CNCCOc2ccc3c(C4CC4)n[nH]c3c2)c1", "note": "[Example 1, (R)—N-(3-(1-Hydroxy-2-(2-(3-cyclopropylindazol-6-yloxy)ethylamino)ethyl)phenyl)methanesulfonamide]", "values": [
      {"measurement": "solubility at 1 h", "setting": "[1]", "result": 55000, "unit": "µg/mL"},
      {"measurement": "increase in MBP (%)", "setting": "[2]", "result": "2.7 ± 0.5", "unit": "%"},
      {"measurement": "Emax", "setting": "[3]", "result": 77, "unit": "%"},
      {"measurement": "EC50", "setting": "[3]", "result": 15, "unit": "nM"},
      {"measurement": "relaxant activity (%) 10^−4 M", "setting": "[4]", "result": 55.7, "unit": "%"},
      {"measurement": "relaxant activity (%) 10^−5 M", "setting": "[4]", "result": 38.6, "unit": "%"},
      {"measurement": "solubility at 1 h", "setting": "[5]", "result": 982, "unit": "µg/mL"},
      {"measurement": "solubility at 1 h", "setting": "[6]", "result": 999, "unit": "µg/mL"}
    ]}
  ]
}
